Values after ≈ are worked out from the molar mass of the structure shown. Read-outs that look alike come from different tables or passages of the source.
Tested on: M. tuberculosis drug resistant strains
Experiment: microbe, parasite or virus in culture
Assay type: cell-based
Conditions: Mycobacterium tuberculosis, cholesterol medium

Q: `Cc1cccc(OC2CCN(Cc3cc(=O)[nH]c(=O)[nH]3)CC2)c1C` [Test Compound, 6-((4-(2,3-dimethylphenoxy)piperidin-1-yl)methyl)pyrimidine-2,4(1H,3H)-dione] was tested. Which MIC (ERDMAN, strain Erdman, DS, read-out: MIC 1) did it give?
A: Its MIC is 0.78 µM (≈ 0.257 µg/mL).

Q: What about the MIC (ERDMAN, strain Erdman, DS, read-out: MIC 2) of the same compound?
A: The MIC was 0.6 µM (≈ 0.198 µg/mL).

Q: And the MIC (H37RV, strain H37Rv, DS, read-out: MIC 2)?
A: Its MIC is 0.39 µM (≈ 0.128 µg/mL).

Q: And the MIC ([…], read-out: MIC 2)?
A: Its MIC is 0.6 µM (≈ 0.198 µg/mL).

Q: What about the MIC (strain CDC1551, DS, read-out: MIC 1) of the same compound?
A: Its MIC is 0.78 µM (≈ 0.257 µg/mL).

Q: What about the MIC (strain CDC1551, DS, read-out: MIC 2) of the same compound?
A: Its MIC is 0.39 µM (≈ 0.128 µg/mL).

Q: What about the MIC (strain HN878, DS, read-out: MIC 1) of the same compound?
A: Its MIC is 0.78 µM (≈ 0.257 µg/mL).

Q: And the MIC (strain HN878, DS, read-out: MIC 2)?
A: Its MIC is 0.6 µM (≈ 0.198 µg/mL).

Q: What about the MIC (strain K03b00DS, DS, read-out: MIC 1) of the same compound?
A: The MIC was 0.3 µM (≈ 0.0988 µg/mL).

Q: What about the MIC (strain K03b00DS, DS, read-out: MIC 2) of the same compound?
A: Its MIC is 0.2 µM (≈ 0.0659 µg/mL).

Q: And the MIC (strain K04b00DS, DS, read-out: MIC 1)?
A: Its MIC is 0.39 µM (≈ 0.128 µg/mL).

Q: What about the MIC (strain K07b00DS, DS, read-out: MIC 1) of the same compound?
A: Its MIC is 0.6 µM (≈ 0.198 µg/mL).

Q: What about the MIC (strain K07b00DS, DS, read-out: MIC 2) of the same compound?
A: The MIC was 0.39 µM (≈ 0.128 µg/mL).

Q: And the MIC (strain K08b00DS, DS, read-out: MIC 1)?
A: The MIC was 0.6 µM (≈ 0.198 µg/mL).

Q: And the MIC (strain K08b00DS, DS, read-out: MIC 2)?
A: Its MIC is 0.39 µM (≈ 0.128 µg/mL).

Q: What about the MIC (strain K11b00DS, DS, read-out: MIC 2) of the same compound?
A: The MIC was 0.78 µM (≈ 0.257 µg/mL).

Q: And the MIC (strain K12b00DS, DS, read-out: MIC 1)?
A: The MIC was 0.2 µM (≈ 0.0659 µg/mL).

Q: What about the MIC (strain K12b00DS, DS, read-out: MIC 2) of the same compound?
A: Its MIC is 0.6 µM (≈ 0.198 µg/mL).

Q: And the MIC (strain K13b00DS, DS, read-out: MIC 1)?
A: Its MIC is 0.78 µM (≈ 0.257 µg/mL).

Q: What about the MIC (strain K13b00DS, DS, read-out: MIC 2) of the same compound?
A: The MIC was 0.6 µM (≈ 0.198 µg/mL).

Q: What about the MIC (strain K14b00DS, DS, read-out: MIC 2) of the same compound?
A: Its MIC is 0.6 µM (≈ 0.198 µg/mL).

Q: And the MIC (strain K16b00DS, DS, read-out: MIC 1)?
A: The MIC was 0.39 µM (≈ 0.128 µg/mL).

Q: And the MIC (strain K16b00DS, DS, read-out: MIC 2)?
A: The MIC was 0.2 µM (≈ 0.0659 µg/mL).

Q: What about the MIC (strain K35b00DS, DS, read-out: MIC 1) of the same compound?
A: Its MIC is 0.6 µM (≈ 0.198 µg/mL).

Q: What about the MIC (strain K35b00DS, DS, read-out: MIC 2) of the same compound?
A: Its MIC is 0.39 µM (≈ 0.128 µg/mL).

Q: And the MIC (strain NIH_G1DS, DS, read-out: MIC 1)?
A: Its MIC is 0.78 µM (≈ 0.257 µg/mL).

Q: And the MIC (strain NIH_G1DS, DS, read-out: MIC 2)?
A: Its MIC is 0.39 µM (≈ 0.128 µg/mL).

Q: And the MIC (strain NIH_G12, read-out: MIC 1)?
A: The MIC was 0.78 µM (≈ 0.257 µg/mL).

Q: What about the MIC (strain NIH_G13, read-out: MIC 1) of the same compound?
A: The MIC was 0.6 µM (≈ 0.198 µg/mL).

From US10624893B2 (priority 2016, dated 2020)
